According to patent publication US8252939B2, “Sulfoximinamide compounds for combating animal pests” (BASF SE, priority 2008, dated 2012):

Assays:
Assay type in all cases: in vivo
[1] = system: Anthonomus grandis; test: Boll weevil (Anthonomus grandis) egg and larval mortality, microtiter plate insect diet; conditions: 120 h, egg and larval mortality after 5 days, read-out: mortality in comparison with untreated controls
Protocol: For evaluating control of boll weevil (Anthonomus grandis) the test unit consisted of 24-well-microtiter plates containing an insect diet and 20-30 A. grandis eggs.
The compounds were formulated using a solution containing 75% v/v water and 25% v/v DMSO. Different concentrations of formulated compounds were sprayed onto the insect diet at 20 μl, using a custom built micro atomizer, at two replications. After application, microtiter plates were incubated at about 23±1° C. and about 50±5% relative humidity for 5 days. Egg and larval mortality was then visually assessed.

[2] = system: Megoura viciae; test: Vetch aphid (Megoura viciae) contact or systemic, broad bean leaf disks; conditions: foliar, 120 h, after 5 days, read-out: mortality in comparison with untreated controls
Protocol: For evaluating control of vetch aphid (Megoura viciae) through contact or systemic means the test unit consisted of 24-well-microtiter plates containing broad bean leaf disks.
The compounds were formulated using a solution containing 75% v/v water and 25% v/v DMSO. Different concentrations of formulated compounds were sprayed onto the leaf disks at 2.5 μl, using a custom built micro atomizer, at two replications. After application, the leaf disks were air-dried and 5-8 adult aphids placed on the leaf disks inside the microtiter plate wells. The aphids were then allowed to suck on the treated leaf disks and incubated at about 23±1° C. and about 50±5% relative humidity for 5 days. Aphid mortality and fecundity was then visually assessed.

[3] = system: Myzus persicae; test: Green peach aphid (Myzus persicae) I, systemic, artificial diet under membrane; conditions: 72 h, after 3 days, read-out: mortality in comparison with untreated controls
Excerpt: For evaluating control of green peach aphid (Myzus persicae) through systemic means the test unit consisted of 96-well-microtiter plates containing liquid artificial diet under an artificial membrane.
The compounds were formulated using a solution containing 75% v/v water and 25% v/v DMSO. Different concentrations of formulated compounds were pipetted into the aphid diet, using a custom built pipetter, at two replications.
After application, 5-8 adult aphids were placed on the artificial membrane inside the microtiter plate wells. The aphids were then allowed to suck on the treated aphid diet and incubated at about 23±1° C. and about 50±5% relative humidity for 3 days. Aphid mortality and fecundity was then visually assessed.

[4] = system: Myzus persicae; test: Green peach aphid (Myzus persicae) II, pepper plant leaf dip; conditions: foliar, 120 h, after 5 days, read-out: mortality in comparison with untreated controls
Excerpt: The active compounds were formulated in 50:50 acetone:water (vol:vol) and 100 ppm Kinetica™ surfactant.
Pepper plants in the 2nd leaf-pair stage (variety ‘California Wonder’) were infested with approximately 40 laboratory-reared aphids by placing infested leaf sections on top of the test plants. The leaf sections were removed after 24 hr. The leaves of the intact plants were dipped into gradient solutions of the test compound and allowed to dry. Test plants were maintained under fluorescent light (24 hour photoperiod) at about 25° C. and about 20-40% relative humidity. Aphid mortality on the treated plants, relative to mortality on check plants, was determined after 5 days.

[5] = system: aphis craccivora; test: Cowpea aphid (aphis craccivora), sprayed potted cowpea plants; conditions: population reduction assessed after 24, 72, and 120 hours, read-out: mortality in comparison with untreated controls
Protocol: The active compound is dissolved at the desired concentration in a mixture of 1:1 (vol:vol) distilled water:acetone. The test solution is prepared at the day of use.
Potted cowpea plants colonized with approximately 100-150 aphids of various stages were sprayed after the pest population has been recorded. Population reduction was assessed after 24, 72, and 120 hours.

[6] = system: Aphis gossypii; test: Cotton aphid (Aphis gossypii) I, cotton cotyledon dip; conditions: 120 h, after 5 days, read-out: mortality in comparison with untreated controls
Excerpt: The active compounds were formulated in 50:50 (vol:vol) acetone:water and 100 ppm Kinetica™ surfactant.
Cotton plants at the cotyledon stage (one plant per pot) were infested by placing a heavily infested leaf from the main colony on top of each cotyledon. The aphids were allowed to transfer to the host plant overnight, and the leaf used to transfer the aphids was removed. The cotyledons were dipped in the test solution and allowed to dry. After 5 days, mortality counts were made.

[7] = system: dichromothrips corbetti; test: Orchid thrips (dichromothrips corbetti) floral-immersion; conditions: 96 h, after 4 days, read-out: mortality in comparison with untreated controls
Protocol: Dichromothrips corbetti adults used for bioassay were obtained from a colony maintained continuously under laboratory conditions. For testing purposes, the test compound was diluted to a concentration of 300 ppm (wt compound: vol diluent) in a 1:1 mixture of acetone:water (vol:vol), plus 0.01% vol/vol Kinetic® surfactant.
Thrips potency of each compound was evaluated by using a floral-immersion technique. Plastic petri dishes were used as test arenas. All petals of individual, intact orchid flowers were dipped into treatment solution and allowed to dry. Treated flowers were placed into individual petri dishes along with 10-15 adult thrips. The petri dishes were then covered with lids. All test arenas were held under continuous light and a temperature of about 28° C. for duration of the assay. After 4 days, the numbers of live thrips were counted on each flower, and along inner walls of each petri dish. The level of thrips mortality was extrapolated from pre-treatment thrips numbers.

[8] = system: Nephotettix virescens; test: Rice green leafhopper (Nephotettix virescens), sprayed rice seedlings; conditions: after 72 hours, read-out: mortality in comparison with untreated controls
Protocol: Rice seedlings were cleaned and washed 24 hours before spraying. The active compounds were formulated in 50:50 acetone:water (vol:vol), and 0.1% vol/vol surfactant (EL 620) was added. Potted rice seedlings were sprayed with 5 ml test solution, air dried, placed in cages and inoculated with 10 adults. Treated rice plants were kept at about 28-29° C. and relative humidity of about 50-60%. Percent mortality was recorded after 72 hours.

N#CN=S1(=O)CCCN1Cc1ccc(Cl)nc1 (centres unmarked) [compound 1]
> 75%: mortality at 2500 ppm [1] | mortality at 2500 ppm [2] | mortality at 300 ppm [3] | mortality at 300 ppm [4] | mortality at 300 ppm [5] | mortality at 300 ppm [6] | mortality at 300 ppm [7] | mortality at 300 ppm [8]

N#CN=S1(=O)CCCN1c1cnc(Cl)c(Cl)c1 (centres unmarked) [compound 12]
> 75%: mortality at 2500 ppm [2] | mortality at 300 ppm [4] | mortality at 300 ppm [5] | mortality at 300 ppm [6] | mortality at 300 ppm [8]

CS(=O)(=NC#N)NCc1ccc(Cl)nc1 (centres unmarked) [compound 90]
> 75%: mortality at 2500 ppm [2] | mortality at 300 ppm [4] | mortality at 300 ppm [5] | mortality at 300 ppm [6]
